The values below come from ChEMBL document CHEMBL2074258 (Drug Metab Dispos, 2005).

The target in data set [1] is T1, Solute carrier family 22 member 2 (Rattus norvegicus, UniProt Q9R0W2).
T1 sequence (Q9R0W2 whole entry): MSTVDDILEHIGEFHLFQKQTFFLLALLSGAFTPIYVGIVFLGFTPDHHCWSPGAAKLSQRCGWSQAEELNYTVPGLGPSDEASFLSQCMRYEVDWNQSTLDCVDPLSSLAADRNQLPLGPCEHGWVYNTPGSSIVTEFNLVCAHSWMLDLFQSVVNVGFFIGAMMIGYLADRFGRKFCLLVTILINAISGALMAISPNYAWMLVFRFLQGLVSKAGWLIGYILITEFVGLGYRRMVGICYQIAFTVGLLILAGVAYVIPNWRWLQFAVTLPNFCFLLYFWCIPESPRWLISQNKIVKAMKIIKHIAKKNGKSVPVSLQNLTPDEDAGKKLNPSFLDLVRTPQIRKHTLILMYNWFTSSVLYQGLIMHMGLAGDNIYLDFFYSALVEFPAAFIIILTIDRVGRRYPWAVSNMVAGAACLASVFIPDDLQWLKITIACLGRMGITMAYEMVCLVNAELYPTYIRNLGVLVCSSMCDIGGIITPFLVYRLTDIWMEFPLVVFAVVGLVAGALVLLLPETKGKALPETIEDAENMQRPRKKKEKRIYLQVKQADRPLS
Kind of data set: TP_TRANSPORTER: inhibition pramipexole uptake in rOCT2-injected oocytes. Type of data set: functional, cell-based, Oocyte.

Data set [2] deals with T2, Solute carrier family 22 member 1 (Rattus norvegicus, UniProt Q63089).
T2 sequence (Q63089 whole entry): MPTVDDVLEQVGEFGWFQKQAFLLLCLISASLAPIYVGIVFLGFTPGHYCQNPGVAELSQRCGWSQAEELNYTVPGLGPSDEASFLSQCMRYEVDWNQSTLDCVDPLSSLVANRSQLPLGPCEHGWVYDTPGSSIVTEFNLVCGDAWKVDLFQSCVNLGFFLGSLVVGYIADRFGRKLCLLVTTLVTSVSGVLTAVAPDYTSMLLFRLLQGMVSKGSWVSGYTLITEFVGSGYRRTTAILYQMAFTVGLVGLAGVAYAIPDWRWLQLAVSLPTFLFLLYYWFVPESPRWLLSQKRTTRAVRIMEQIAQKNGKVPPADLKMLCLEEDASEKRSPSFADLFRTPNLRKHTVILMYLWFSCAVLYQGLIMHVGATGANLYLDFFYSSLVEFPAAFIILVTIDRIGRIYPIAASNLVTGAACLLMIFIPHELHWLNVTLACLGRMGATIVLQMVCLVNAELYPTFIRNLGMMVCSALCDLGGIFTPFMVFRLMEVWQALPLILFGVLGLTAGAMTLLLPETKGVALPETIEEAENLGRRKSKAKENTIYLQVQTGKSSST
As to the kind of experiment: TP_TRANSPORTER: inhibition pramipexole uptake in rOCT1-injected oocytes. It counts as functional, cell-based, Oocyte.

The target in data set [3] is T1, Solute carrier family 22 member 2. As to the kind of experiment: TP_TRANSPORTER: uptake in Xenopus laevis oocytes. As to conditions: Xenopus laevis oocytes expressing the transporter.
Substrate in data set [4]: CCCN[C@H]1CCc2nc(N)sc2C1
Kind of data set: cells, lysate or membranes named.

As to `NC12CC3CC(CC(C3)C1)C2` [AMANTADINE], the IC50 was 271 µM in data set [1] and 76.3 µM in data set [2].
Regarding `C[C@]12C[C@H](O)[C@H]3[C@@H](CCC4=CC(=O)CC[C@@]43C)[C@@H]1CC[C@@H]2C(=O)CO` [CORTICOSTERONE], the IC50 in data set [1] is 10.7 µM; in data set [2], 164 µM.
For the molecule `CCCN[C@H]1CCc2nc(N)sc2C1` [PRAMIPEXOLE], the Km in data set [3] stood at 17 µM.
In data set [1], `CCN(CC)CCNC(=O)c1ccc(N)cc1` [PROCAINAMIDE] had an IC50 of 167 µM.

B1: Solute carrier family 22 member 2 (Rattus norvegicus) (protein)
chain: MSTVDDILEHIGEFHLFQKQTFFLLALLSGAFTPIYVGIVFLGFTPDHHCWSPGAAKLSQRCGWSQAEELNYTVPGLGPSDEASFLSQCMRYEVDWNQSTLDCVDPLSSLAADRNQLPLGPCEHGWVYNTPGSSIVTEFNLVCAHSWMLDLFQSVVNVGFFIGAMMIGYLADRFGRKFCLLVTILINAISGALMAISPNYAWMLVFRFLQGLVSKAGWLIGYILITEFVGLGYRRMVGICYQIAFTVGLLILAGVAYVIPNWRWLQFAVTLPNFCFLLYFWCIPESPRWLISQNKIVKAMKIIKHIAKKNGKSVPVSLQNLTPDEDAGKKLNPSFLDLVRTPQIRKHTLILMYNWFTSSVLYQGLIMHMGLAGDNIYLDFFYSALVEFPAAFIIILTIDRVGRRYPWAVSNMVAGAACLASVFIPDDLQWLKITIACLGRMGITMAYEMVCLVNAELYPTYIRNLGVLVCSSMCDIGGIITPFLVYRLTDIWMEFPLVVFAVVGLVAGALVLLLPETKGKALPETIEDAENMQRPRKKKEKRIYLQVKQADRPLS
As for B1, the Km in data set [4] came to 17 µM.

One may read the IC50 as the midpoint of a concentration-inhibition curve. Lower therefore signals greater potency. One may read the Km as the concentration of substrate that gives half-maximal velocity.
